Laboratory results from PMC8151276, “An Integrated Approach toward NanoBRET Tracers for Analysis of GPCR Ligand Engagement” (Molecules, 2021).

Columns and labels:
[1] = target: T1, CCR6 (Homo sapiens, UniProt P51684); assay: NanoBRET screen HiBiT-CCR6 in HEK293; format: binding; details: CCR6
T1 construct: purchased Promega (in-house HiBiT-GPCR construct library, NanoBRET)
T1 sequence (P51684 1-374): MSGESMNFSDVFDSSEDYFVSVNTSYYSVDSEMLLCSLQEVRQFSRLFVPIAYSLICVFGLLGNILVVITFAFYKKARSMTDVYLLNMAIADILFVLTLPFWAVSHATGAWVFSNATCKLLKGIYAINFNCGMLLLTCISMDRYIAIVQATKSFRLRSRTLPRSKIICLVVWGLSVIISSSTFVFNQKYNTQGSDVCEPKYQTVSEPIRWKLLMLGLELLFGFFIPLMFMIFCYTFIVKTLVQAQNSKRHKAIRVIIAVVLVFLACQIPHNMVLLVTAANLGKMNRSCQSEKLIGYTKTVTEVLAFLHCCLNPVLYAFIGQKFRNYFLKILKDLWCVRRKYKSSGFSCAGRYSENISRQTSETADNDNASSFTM
Method: (§1) Each tracer candidate was screened across the entire library of HiBiT-GPCR constructs using NanoBRET as the detection modality. As depicted in Figure 4A, the specificity of interactions was evaluated through decrease in BRET due to competitive displacement of a bound tracer by excess parental compound. Each tracer was analyzed for binding to each HiBiT-GPCR fusion in the absence and in the presence of competing parental compound. Briefly, HEK293 cells were transfected with HiBiT-GPCR constructs diluted into promoterless DNA to reduce expression and maximize translocation to the cell surface. Each tracer candidate was then screened at concentrations of 1 μM and 0.1 μM across cells expressing these fusions. Cells were treated for 1.5 h with tracer either alone or in the presence of 20 μM competing parental compound (i.e., control). BRET was measured upon addition of purified LgBiT and subsequent complementation with HiBiT genetically fused to a GPCR. The specificity of interactions was assessed through a decrease in BRET signal due to competitive displacement of the bound tracer. To further gauge the robustness of these interactions, the fold response over the control (i.e., BRETtracer/BRETcontrol) was calculated. We chose a 1.5-fold response, which translates to ≥7-fold signal over noise as the minimal threshold required to score an interaction as positive. […]. Below we highlight the screening results obtained for our exemplary fluorescent tracers based on Clozapine, Amitriptyline and AZD1283.
(§2) HiBiT-GPCR DNA constructs were diluted in 10 mM Tris pH 8 to a final concentration of 0.01 μg/μL, arrayed in 96-well plates and stored at −20 °C. For transfection, HEK293 cells were suspended in Opti-MEM (without phenol red) supplemented with 2% fetal bovine serum (Seradigm) and 100 units/mL penicillin–streptomycin (Gibco) at a final concentration of 220,000 cells/mL and dispensed into white 96-well plates at 90 μL/well. Subsequent transfections and screens were carried using an Agilent Bravo Automated Liquid Handling Platform. First, the 96-well HiBiT DNA arrays were diluted 25-fold in Opti-MEM (without serum or phenol red) to a final concentration of 0.0004 μg/μL and 20 μL of the diluted DNAs were transferred into new 96-well plates. Next, promoterless carrier DNA (1 μg/μL) was diluted 25-fold (0.04 μg/μL) and then dispensed into the diluted arrays at 20 μL/well. Following brief mixing, Viafect transfection reagent (Promega) diluted 16-fold into Opti-MEM was dispensed into the plates at 40 μL/well. After mixing by pipetting, plates were incubated for 10 min on the pipetting station deck. The DNA-transfection reagent complexes were then added to plates containing cells. To facilitate the screen, 10 μL of DNA-transfection reagent complexes were added in duplicates to the top 4 and bottom 4 rows, resulting in two identical 48-well arrays per plate. Plates with transfected cells were incubated for 18–20 h at 37 °C/5% CO2. A screen of each tracer across the entire library using two different concentrations requires duplicate plates of transfected cells. Depending on the number of tracers being screened, transfections can be scaled up using the same ratios. The next day, for each tracer, four 20× screening solutions in tracer dilution buffer (Promega) were prepared: two duplicates at final concentration of 20 μM and two duplicates at a final concentration of 2 μM. A competing unmodified compound was added to one of each duplicate at a final concentration of 400 μM. The four resulting solutions were diluted 4-fold in Opti-MEM without serum or phenol red to generate 5× solutions (5 µM and 0.5 µM tracer +/− 100 μM competing compound). To screen the library, a BioTek MultiFlo FX liquid dispenser was used to dispense 22.5 µL of tracer solution to the top 4 rows and 22.5 µL tracer + competing compound solution to the 4 bottom rows. Plates were briefly mixed on an orbital shaker and incubated for 1.5 h at room temperature. […]

[2] = target: T2, P2RY11 (Homo sapiens, UniProt Q96G91); assay: NanoBRET screen HiBiT-P2RY11 in HEK293; format: binding; details: P2RY11
T2 construct: purchased Promega (in-house HiBiT-GPCR construct library, NanoBRET)
T2 sequence (Q96G91 1-374): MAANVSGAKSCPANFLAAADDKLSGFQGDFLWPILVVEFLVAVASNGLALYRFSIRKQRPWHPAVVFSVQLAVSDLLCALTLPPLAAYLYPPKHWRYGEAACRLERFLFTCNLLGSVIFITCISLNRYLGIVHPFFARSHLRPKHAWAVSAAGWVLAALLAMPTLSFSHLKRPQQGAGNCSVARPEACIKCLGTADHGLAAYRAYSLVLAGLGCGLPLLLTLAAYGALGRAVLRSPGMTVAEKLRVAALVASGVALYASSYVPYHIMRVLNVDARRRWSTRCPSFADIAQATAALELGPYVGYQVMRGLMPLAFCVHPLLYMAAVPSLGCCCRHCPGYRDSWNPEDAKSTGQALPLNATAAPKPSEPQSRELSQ
Method: as §1, §2

| Compound | NanoBRET Fold Response ([1]; tracer 0.1μM) | NanoBRET Fold Response ([1]; tracer 1μM) | NanoBRET Fold Response ([2]; tracer 0.1μM) | NanoBRET Fold Response ([2]; tracer 1μM) | further results |
| --- | --- | --- | --- | --- | --- |
| CN1CCN(C2=Nc3cc(Cl)ccc3N(CC(=O)NCCOCCOCCOCCOCCNC(=O)CCc3ccc4n3[B-](F)(F)[N+]3=C(c5ccc[nH]5)C=CC3=C4)c3ccccc32)CC1 [Clozapine-c-2-NB590] |  |  |  |  | NanoBRET Fold Response ([1]; 0.1μM tracer): 0.99; NanoBRET Fold Response ([1]; 1μM tracer): 0.91; NanoBRET Fold Response ([2]; 0.1μM tracer): 0.93; NanoBRET Fold Response ([2]; 1μM tracer): 0.98 |
| O=C(CCOCCOCCOCCOCCNC(=O)CCc1ccc2n1[B-](F)(F)[N+]1=C(c3ccc[nH]3)C=CC1=C2)NCCCN1CCN(C2=Nc3ccccc3Oc3ccc(Cl)cc32)CC1 [Loxapine-a-2-NB590] | 1.00 | 0.97 | 1.02 | 0.94 |  |
| COc1ccccc1N1CCN(CCCCN2C(=O)c3ccc(CNC(=O)CCOCCOCCOCCOCCNC(=O)CCc4ccc5n4[B-](F)(F)[N+]4=C(c6ccc[nH]6)C=CC4=C5)cc3C2=O)CC1 [NAN-190-2-NB590] | 0.99 | 1.02 | 1.09 | 0.99 |  |
| COc1ccccc1N1CCN(CCCCN2C(=O)c3ccc(CNC(=O)CCOCCNC(=O)c4ccc(CNC(=O)CCc5ccc6n5[B-](F)(F)[N+]5=C(c7ccc[nH]7)C=CC5=C6)cc4)cc3C2=O)CC1 [NAN-190-3-NB590] | 1.19 | 0.93 | 1.05 | 0.96 |  |
| O=C(CCc1ccc2n1[B-](F)(F)[N+]1=C(c3ccc[nH]3)C=CC1=C2)NCc1ccc(C(=O)NCCOCCC(=O)N[C@@H]2CC[C@@]3(O)[C@H]4Cc5ccc(O)c6c5[C@@]3(CCN4CC3CC3)[C@H]2O6)cc1 [Naltrexone-3-NB590] | 0.94 | 1.24 | 1.26 | 0.71 |  |
| Cc1cc2c(s1)Nc1ccccc1N=C2N1CCN(CCCNC(=O)CCOCCOCCOCCOCCNC(=O)CCc2ccc3n2[B-](F)(F)[N+]2=C(c4ccc[nH]4)C=CC2=C3)CC1 [Olanzapine-a-2-NB590] | 1.00 | 1.21 | 1.00 | 0.89 |  |
| O=C(CCc1ccc2n1[B-](F)(F)[N+]1=C(c3ccc[nH]3)C=CC1=C2)NCc1ccc(C(=O)NCCOCCOCCNCC(O)COc2cccc3ccccc23)cc1 (stereo not drawn) [Propranolol-3-NB590] |  |  |  |  | NanoBRET Fold Response ([1]; 0.1μM): 0.95; NanoBRET Fold Response ([1]; 1μM): 1.02; NanoBRET Fold Response ([2]; 0.1μM): 1.03; NanoBRET Fold Response ([2]; 1μM): 0.96 |
| O=C(CCc1ccc2n1[B-](F)(F)[N+]1=C(c3ccc[nH]3)C=CC1=C2)NCCOCCOCCNC(=O)OCCOCCN1CCN(C2=Nc3ccccc3Sc3ccccc32)CC1 [Quetiapine-a-2-NB590] | 1.05 | 0.95 | 1.05 | 0.91 |  |
| Cc1nc2n(c(=O)c1CCN1CCC(c3noc4cc(F)ccc34)CC1)CCCC2OC(=O)NCCOCCOCCOCCOCCNC(=O)CCc1ccc2n1[B-](F)(F)[N+]1=C(c3ccc[nH]3)C=CC1=C2 (stereo not drawn) [Risperidone-2-NB590] | 1.07 | 0.91 | 1.04 | 0.88 |  |
